Columns and labels:
MCF7 [1] = experiment: Antiproliferative activity against human MCF7 cells assessed as reduction in cell growth incubated for 48 hrs by MTT assay; format: functional, cell-based; settings: MCF7, 48 h
SK-OV-3 = experiment: Antiproliferative activity against human SK-OV-3 cells assessed as reduction in cell growth incubated for 48 hrs by MTT assay; format: functional, cell-based; settings: SK-OV-3, 48 h
HeLa [2] = experiment: Antiproliferative activity against human HeLa cells assessed as reduction in cell growth incubated for 48 hrs by MTT assay; format: functional, cell-based
HepG2 = experiment: Antiproliferative activity against human HepG2 cells assessed as reduction in cell growth incubated for 48 hrs by MTT assay; format: functional, cell-based; settings: HepG2, 48 h
ECa-109 cell line [3] = experiment: Cytotoxicity against human Eca-109 cells assessed as reduction in cell viability incubated for 72 hrs by MTT assay; format: functional, cell-based; settings: ECa-109, 72 h
MGC-803 [4] = experiment: Cytotoxicity against human MGC-803 cells assessed as reduction in cell viability incubated for 72 hrs by MTT assay; format: functional, cell-based; settings: MGC-803, 72 h
PC-3 [5] = experiment: Cytotoxicity against human PC-3 cells assessed as reduction in cell viability incubated for 72 hrs by MTT assay; format: functional, cell-based; settings: PC-3, 72 h
MCF7 [6] = experiment: Cytotoxicity against human MCF7 cells assessed as reduction in cell viability incubated for 72 hrs by MTT assay; format: functional, cell-based; settings: MCF7, 72 h
A549 = experiment: Cytotoxicity against human A549 cells assessed as reduction in cell viability incubated for 72 hrs by MTT assay; format: functional, cell-based; settings: A549, 72 h
[7] = Acute toxicity in ip dosed albino rat administered twice daily for 14 days; format: organism-based; settings: in vivo, time 14 day
Rattus norvegicus [8] = experiment: Anti-androgen activity against albino rat assessed as mass gain of prostate gland at 0.1 mg/kg, sc administered for 7 days; format: functional; settings: time 7 day
Rattus norvegicus [9] = experiment: Anti-anabolic activity against albino rat assessed as mass gain of levator ani-muscle at 0.1 mg/kg, sc administered for 7 days; format: functional; settings: time 7 day
Rattus norvegicus [10] = organism: Rattus norvegicus; experiment: Ratio of anti-anabolic activity against albino rat assessed as reduction in mass of levator ani-muscle to anti-androgenic activity against albino rat assessed as mass gain of prostate gland; format: functional
[11] = Cytotoxicity against human RWPE-1 cells assessed as reduction in cell viability incubated for 48 hrs by SRB assay; format: toxicity, cell-based
PC-3 [12] = experiment: Cytotoxicity against human PC-3 cells assessed as reduction in cell viability incubated for 48 hrs by SRB assay; format: toxicity, cell-based; settings: PC-3, 48 h
HeLa [13] = experiment: Antiproliferative activity against human HeLa cells assessed as reduction in cell viability by MTT assay; format: functional, cell-based
[14] = Antiproliferative activity against human […] cells assessed as reduction in cell viability by MTT assay; format: functional, cell-based
ECa-109 cell line [15] = experiment: Antiproliferative activity against human EC109 cells assessed as reduction in cell proliferation incubated for 72 hrs by MTT assay; format: functional, cell-based; settings: ECa-109, 72 h
EC9706 = experiment: Antiproliferative activity against human EC9706 assessed as reduction in cell proliferation incubated for 72 hrs by MTT assay; format: functional, cell-based; settings: EC9706, 72 h
MGC-803 [16] = experiment: Antiproliferative activity against human MGC-803 cells assessed as cell growth inhibition measured after 48 hrs by MTT assay; format: functional, cell-based; settings: MGC-803, 48 h

## C[C@]12CC[C@H]3[C@@H](CC=C4C[C@@H](O)CC[C@@]43C)[C@@H]1CC[C@@H]2c1cc(-c2ccccc2)c(C#N)c(N)n1
MCF7 [1]
  IC50: 15.5 µM
SK-OV-3
  IC50: 13.1 µM
HeLa [2]
  IC50: 14.6 µM
HepG2
  IC50: 23.8 µM
ECa-109 cell line [3]
  IC50: > 64 µM
MGC-803 [4]
  IC50: 10.9 µM
PC-3 [5]
  IC50: 3.2 µM
MCF7 [6]
  IC50: 16 µM
A549
  IC50: 43.2 µM

## CCOC1(OCC)NC(c2ccccc2)=C2C[C@H]3[C@@H]4CC[C@H]5C[C@@H](O)CC[C@]5(C)[C@H]4CC[C@]3(C)C2=C1C#N
[7]
  LD50 at 336 h: 4900 mg/kg
Rattus norvegicus [8]
  Activity: 0.345 g
Rattus norvegicus [9]
  Activity: 0.486 g
Rattus norvegicus [10]
  Ratio: 1.41

## C[C@]12CC[C@H](O)C[C@@H]1CC[C@@H]1[C@@H]2CC[C@]2(C)c3c(c(-c4ccccc4)[nH]c(=O)c3C#N)C[C@@H]12
[7]
  LD50 at 336 h: 4920 mg/kg
Rattus norvegicus [8]
  Activity: 0.234 g
Rattus norvegicus [10]
  Ratio: 11.3

## COc1ccc(-c2cc([C@H]3CC[C@H]4[C@@H]5CC=C6C[C@@H](O)CC[C@]6(C)[C@H]5CC[C@]34C)nc(N)c2C#N)cc1
MCF7 [1]
  IC50: 101 µM
SK-OV-3
  IC50: 32.5 µM
HeLa [2]
  IC50: 40.3 µM
HepG2
  IC50: 34.8 µM
ECa-109 cell line [3]
  IC50: > 64 µM
MGC-803 [4]
  IC50: 57.8 µM
PC-3 [5]
  IC50: 5.7 µM
MCF7 [6]
  IC50: 51.1 µM
A549
  IC50: > 64 µM

## CCOC(=O)c1cc2c(nc1C(=O)OCC)[C@@]1(C)CC[C@H]3[C@@H](CC=C4C[C@@H](O)CC[C@@]43C)[C@@H]1C2
[11]
  IC50 at 48 h: 501 µM
PC-3 [12]
  IC50: 95.4 µM

## CC(=O)O[C@H]1CC[C@@]2(C)C(=CC[C@@H]3[C@@H]2CC[C@]2(C)c4cc(-c5ccccc5)ncc4C[C@@H]32)C1
HeLa [13]
  IC50: ≥ 100 µM
[14]
  IC50: ≥ 100 µM

## C[C@]12CC[C@H](O)C[C@@H]1CC[C@@H]1[C@@H]2CC[C@]2(C)c3c(C#N)c(S)nc(-c4ccc(Cl)cc4)c3C[C@@H]12
[7]
  LD50 at 336 h: 4910 mg/kg
Rattus norvegicus [8]
  Activity: 0.345 g
Rattus norvegicus [9]
  Activity: 0.48 g
Rattus norvegicus [10]
  Ratio: 1.39

## C[C@]12CC[C@H](O)CC1=CC[C@@H]1[C@@H]2CC[C@]2(C)C(c3cccnc3)=CC[C@@H]12 [ABIRATERONE]
[11]
  IC50 at 48 h: 645 µM
PC-3 [12]
  IC50: 91 µM
PC-3 [5]
  IC50: 17.2 µM

## CCOc1nc(-c2ccc(F)cc2)c2c(c1C#N)[C@@]1(C)CC[C@H]3[C@@H](CC[C@H]4C[C@@H](O)CC[C@@]43C)[C@@H]1C2
[7]
  LD50 at 336 h: 4890 mg/kg
Rattus norvegicus [8]
  Activity: 0.123 g
Rattus norvegicus [9]
  Activity: 0.191 g
Rattus norvegicus [10]
  Ratio: 1.55

## CCOc1nc(-c2ccccc2)c2c(c1C#N)[C@@]1(C)CC[C@H]3[C@@H](CC[C@H]4C[C@@H](O)CC[C@@]43C)[C@@H]1C2
[7]
  LD50 at 336 h: 4890 mg/kg
Rattus norvegicus [8]
  Activity: 0.321 g
Rattus norvegicus [9]
  Activity: 0.494 g
Rattus norvegicus [10]
  Ratio: 1.54

## CCCCc1cc2c(cn1)C[C@H]1[C@@H]3CC=C4C[C@@H](OC(C)=O)CC[C@]4(C)[C@H]3CC[C@]21C
HeLa [13]
  IC50: ≥ 100 µM
[14]
  IC50: ≥ 100 µM

## CCOC(=O)c1cc2c(nc1-c1ccccc1)[C@@]1(C)CC[C@H]3[C@@H](CC=C4C[C@@H](OC(C)=O)CC[C@@]43C)[C@@H]1C2
[11]
  IC50 at 48 h: 375 µM
PC-3 [12]
  IC50: 437 µM

## C[C@]12CC[C@H]3[C@@H](CCC4=CC(=O)CC[C@@]43C)[C@@H]1CC[C@@H]2O [TESTOSTERONE]
[7]
  LD50 at 336 h: 2750 mg/kg
Rattus norvegicus [8]
  Activity: 0.76 g
Rattus norvegicus [9]
  Activity: 0.204 g
Rattus norvegicus [10]
  Ratio: 0.27

## CC(=O)O[C@H]1CC[C@@]2(C)C(=CC[C@@H]3[C@@H]2CC[C@]2(C)c4nc(C)c(C(C)=O)cc4C[C@@H]32)C1
ECa-109 cell line [15]
  EC50: 14.3 µM
EC9706
  IC50: 30.6 µM
MGC-803 [16]
  IC50: 10.3 µM

## CCOC(=O)c1cc2c(nc1C)[C@@]1(C)CC[C@H]3[C@@H](CC=C4C[C@@H](OC(C)=O)CC[C@@]43C)[C@@H]1C2
ECa-109 cell line [15]
  EC50: 16.1 µM
EC9706
  IC50: 34.7 µM
MGC-803 [16]
  IC50: 12.2 µM

## CCOC(=O)c1cc2c(nc1CCl)[C@@]1(C)CC[C@H]3[C@@H](CC=C4C[C@@H](OC(C)=O)CC[C@@]43C)[C@@H]1C2
ECa-109 cell line [15]
  EC50: 15.5 µM
EC9706
  IC50: 37.6 µM
MGC-803 [16]
  IC50: 9.84 µM

## CCOC1(OCC)NC(c2ccc(F)cc2)=C2C[C@H]3[C@@H]4CC[C@H]5C[C@@H](O)CC[C@]5(C)[C@H]4CC[C@]3(C)C2=C1C#N
[7]
  LD50 at 336 h: 4900 mg/kg
Rattus norvegicus [8]
  Activity: 0.432 g
Rattus norvegicus [9]
  Activity: 0.622 g
Rattus norvegicus [10]
  Ratio: 1.44

## C[C@]12CCC(=O)C[C@@H]1CC[C@@H]1[C@@H]2CC[C@]2(C)[C@@H](O)CC[C@@H]12 [STANOLONE]
[7]
  LD50 at 336 h: 3410 mg/kg
Rattus norvegicus [8]
  Activity: 0.2 g
Rattus norvegicus [9]
  Activity: 0.18 g

## O=c1[nH]cc(F)c(=O)[nH]1 [FLUOROURACIL]
ECa-109 cell line [15]
  EC50: 21.1 µM
EC9706
  IC50: 2.45 µM
MGC-803 [16]
  IC50: 26.4 µM
MCF7 [1]
  IC50: 25.4 µM
SK-OV-3
  IC50: 25 µM
HeLa [2]
  IC50: 18.8 µM
HepG2
  IC50: 66.8 µM
MGC-803 [4]
  IC50: 15.7 µM
PC-3 [5]
  IC50: 6.7 µM
MCF7 [6]
  IC50: 10 µM
A549
  IC50: 5.7 µM

## CC(=O)O[C@H]1CC[C@@]2(C)C(=CC[C@@H]3[C@@H]2CC[C@]2(C)c4cc(-c5ccc(F)cc5)ncc4C[C@@H]32)C1
HeLa [13]
  IC50: ≥ 100 µM
[14]
  IC50: ≥ 100 µM

## CCOC(=O)c1cc2c(nc1C(=O)OCC)[C@@]1(C)CC[C@H]3[C@@H](CC=C4C[C@@H](OC(C)=O)CC[C@@]43C)[C@@H]1C2
[11]
  IC50 at 48 h: 218 µM
PC-3 [12]
  IC50: 100 µM

## CCOC(=O)c1cc2c(cn1)C[C@H]1[C@@H]3CC=C4C[C@@H](OC(C)=O)CC[C@]4(C)[C@H]3CC[C@]21C
HeLa [13]
  IC50: ≥ 100 µM
[14]
  IC50: ≥ 100 µM

## C[C@]12CC[C@H](O)C[C@@H]1CC[C@@H]1[C@@H]2CC[C@]2(C)c3c(C#N)c(S)nc(-c4ccccc4)c3C[C@@H]12
[7]
  LD50 at 336 h: 4910 mg/kg
Rattus norvegicus [8]
  Activity: 0.421 g
Rattus norvegicus [9]
  Activity: 0.577 g
Rattus norvegicus [10]
  Ratio: 1.37

## COc1cccc2c1C(=O)c1c(O)c3c(c(O)c1C2=O)C[C@@](O)(C(=O)CO)C[C@@H]3O[C@H]1C[C@H](N)[C@H](O)[C@H](C)O1 [DOXORUBICIN]
[14]
  IC50: 9 µM

## C[C@]12CC[C@H](O)C[C@@H]1CC[C@@H]1[C@@H]2CC[C@]2(C)c3c(c(-c4ccc(Cl)cc4)[nH]c(=O)c3C#N)C[C@@H]12
[7]
  LD50 at 336 h: 4920 mg/kg
Rattus norvegicus [8]
  Activity: 0.234 g
Rattus norvegicus [9]
  Activity: 0.314 g
Rattus norvegicus [10]
  Ratio: 1.34

## CC(=O)O[C@H]1CC[C@@]2(C)C(=CC[C@@H]3[C@@H]2CC[C@]2(C)c4cc(-c5ccc(C)cc5)ncc4C[C@@H]32)C1
HeLa [13]
  IC50: ≥ 100 µM
[14]
  IC50: ≥ 100 µM

## COC(=O)c1cc2c(nc1C)[C@@]1(C)CC[C@H]3[C@@H](CC=C4C[C@@H](OC(C)=O)CC[C@@]43C)[C@@H]1C2
ECa-109 cell line [15]
  EC50: 17.1 µM
EC9706
  IC50: 26.5 µM
MGC-803 [16]
  IC50: 16.7 µM

## CCCc1cc2c(cn1)C[C@H]1[C@@H]3CC=C4C[C@@H](OC(C)=O)CC[C@]4(C)[C@H]3CC[C@]21C
HeLa [13]
  IC50: ≥ 100 µM
[14]
  IC50: ≥ 100 µM

## CCOC(=O)c1cc2c(nc1-c1ccccc1)[C@@]1(C)CC[C@H]3[C@@H](CC=C4C[C@@H](O)CC[C@@]43C)[C@@H]1C2
[11]
  IC50 at 48 h: 189 µM
PC-3 [12]
  IC50: 197 µM

From ChEMBL document CHEMBL5329192, “Synthesis, biological activities, and future perspectives of steroidal monocyclic pyridines” (RSC Med Chem, 2023)
